Source: patent US11116710B2, “Antimicrobial compositions” (SYMRISE AG, priority 2016, dated 2021)

Columns and labels:
E. coli = experiment: Preservative challenge test (European Pharmacopoeia 7.0, 5.1.3) in anionic emulsion with Dracorin CE; type: cell-based, Escherichia coli; conditions: pH 5.5
Procedure: (§1) The invention will be further described in the following on the basis of examples. The examples serve to illustrate the invention, without thereby restricting the scope of protection of the claims. For examples, 1 to 11 preservative challenge tests according to European Pharmacopoeia 7.0 (5.1.3. Efficacy of antimicrobial preservation) were used. For example 12, activities were determined by measuring minimum inhibitory concentrations (MIC values) according to DIN 58940. All numerical information relates to weight, unless stated otherwise.
(§2) Activity of Benzoic acid-3-hydroxypropylester (BAHP) against the microorganisms E. coli, P. aeruginosa, S. aureus, C. albicans and spores of A. brasiliensis was evaluated in an anionic emulsion with Dracorin CE as emulsifier. The pH value of the emulsion was 5.5.
(§3) Activity of Furoic acid-3-hydroxypropylester (FAHP) against the microorganisms E. coli, P. aeruginosa, S. aureus, C. albicans and spores of A. brasiliensis was evaluated in an anionic emulsion with Dracorin CE as emulsifier. The pH value of the emulsion was 5.5.
(§4) Activity of Anisic acid-3-hydroxypropylester (AAHP) against the microorganisms E. coli, P. aeruginosa, S. aureus, C. albicans and spores of A. brasiliensis was evaluated in an anionic emulsion with Dracorin CE as emulsifier. The pH value of the emulsion was 5.5.
(§5) Synergistic effects between Benzoic acid-3-hydroxypropylester (BAHP) and 1,2-Octanediol were determined. Activity of BAHP, 1,2-Octanediol and the combination of BAHP and 1,2-Octanediol against the microorganisms E. coli, P. aeruginosa, S. aureus, C. albicans and spores of A. brasiliensis was evaluated in an anionic emulsion with Dracorin CE as emulsifier. The pH value of the emulsion was 5.5.

P. aeruginosa = experiment: as above; type: cell-based, Pseudomonas aeruginosa; conditions: pH 5.5
Procedure: as §1, §2, §3, §4, §5

S. aureus = experiment: as above; type: cell-based, Staphylococcus aureus; conditions: pH 5.5
Procedure: as §1, §2, §3, §4, §5

C. albicans = experiment: as above; type: cell-based, Candida albicans; conditions: pH 5.5
Procedure: as §1, §2, §3, §4, §5

[1] = test system: spores of A. brasiliensis; experiment: as above; type: cell-based, Aspergillus brasiliensis
Procedure: as §1, §2, §3, §4
Activity of N-Methylsalicylamid (MSA) against the microorganism A. brasiliensis was evaluated in an anionic emulsion with Dracorin CE as emulsifier. The pH value of the emulsion was 5.5.
Activity of Furoic acid methylester (FAME) against the microorganism A. brasiliensis was evaluated in an anionic emulsion with Dracorin CE as emulsifier. The pH value of the emulsion was 5.5.
Activity of Salicylamide (SA) against the microorganism A. brasiliensis was evaluated in an anionic emulsion with Dracorin CE as emulsifier. The pH value of the emulsion was 5.5.
Activity of Salicylic acid hydroxyethyl ester (SAHE) against the microorganism A. brasiliensis was evaluated in an anionic emulsion with Dracorin CE as emulsifier. The pH value of the emulsion was 5.5.
Activity of Salicylic acid hydroxypropyl ester (SAHP) against the microorganism A. brasiliensis was evaluated in an anionic emulsion with Dracorin CE as emulsifier. The pH value of the emulsion was 5.5.
Activity of Benzoic acid-3-hydroxypropylester (BAHP) against spores of A. brasiliensis was evaluated in an anionic emulsion with Dracorin CE as emulsifier. The pH value of the emulsion was 7.
Activity of Anisic acid-3-hydroxypropylester (AAHP) against spores of A. brasiliensis was evaluated in an anionic emulsion with Dracorin CE as emulsifier. The pH value of the emulsion was 7. […]

Aspergillus brasiliensis = experiment: Minimum inhibitory concentration (MIC) according to DIN 58940; type: cell-based
Procedure: as §1
(§6) The activity of Benzoic acid-3-hydroxypropylester (BAHP), Furoic acid-3-hydroxypropylester (FAHP) and Anisic acid-3-hydroxypropylester (AAHP), Salicylic acid hydroxyethyl ester (SAHE) and Salicylic acid hydroxypropyl ester (SAHP) was determined against the microorganisms Staphylococcus aureus, Candida albicans, Aspergillus brasiliensis, Pseudomonas aeruginosa and Escherichia coli. The activity of N-Methylsalicylamid (MSA), Furoic acid methylester (FAME) and Salicylamide (SA) was determined against the microorganism Aspergillus brasiliensis.

Candida albicans = experiment: as above; type: cell-based; conditions: DIN 58940
Procedure: as §1, §6

Escherichia coli = experiment: as above; type: cell-based
Procedure: as §1, §6

Pseudomonas aeruginosa = experiment: as above; type: cell-based
Procedure: as §1, §6

Staphylococcus aureus = experiment: as above; type: cell-based
Procedure: as §1, §6

[2] = day 2, 1.0% in anionic emulsion
[3] = day 7, 1.0% in anionic emulsion
[4] = day 14, 1.0% in anionic emulsion
[5] = day 28, 1.0% in anionic emulsion

COc1ccc(C(=O)OCCCO)cc1 [AAHP, Anisic acid-3-hydroxypropylester]
>5000 ppm: MIC values (ppm) Pseudomonas aeruginosa (Pseudomonas aeruginosa)
1000 ppm: MIC values (ppm) Aspergillus brasiliensis (Aspergillus brasiliensis)
<10 cfu/g formulation: Colony counts (cfu/g formulation) (E. coli; [2]) | Colony counts (cfu/g formulation) (E. coli; [3]) | Colony counts (cfu/g formulation) (E. coli; [4]) | Colony counts (cfu/g formulation) (E. coli; [5]) | Colony counts (cfu/g formulation) (P. aeruginosa; [2]) | Colony counts (cfu/g formulation) (P. aeruginosa; [3]) | Colony counts (cfu/g formulation) (P. aeruginosa; [4]) | Colony counts (cfu/g formulation) (P. aeruginosa; [5]) | Colony counts (cfu/g formulation) (S. aureus; [2]) | Colony counts (cfu/g formulation) (S. aureus; [3]) | Colony counts (cfu/g formulation) (S. aureus; [4]) | Colony counts (cfu/g formulation) (S. aureus; [5]) | Colony counts (cfu/g formulation) (C. albicans; [2]) | Colony counts (cfu/g formulation) (C. albicans; [3]) | Colony counts (cfu/g formulation) (C. albicans; [4]) | Colony counts (cfu/g formulation) (C. albicans; [5]) | Colony counts (cfu/g formulation) ([1]; day 7, 1.0% in anionic emulsion, pH 5.5) | Colony counts (cfu/g formulation) ([1]; day 7, 1.0% in anionic emulsion, pH 7) | Colony counts (cfu/g formulation) ([1]; day 14, 1.0% in anionic emulsion, pH 5.5) | Colony counts (cfu/g formulation) ([1]; day 14, 1.0% in anionic emulsion, pH 7) | Colony counts (cfu/g formulation) ([1]; day 28, 1.0% in anionic emulsion, pH 5.5) | Colony counts (cfu/g formulation) ([1]; day 28, 1.0% in anionic emulsion, pH 7)
2500 ppm: MIC values (ppm) Candida aibicans (Candida albicans) | MIC values (ppm) Escherichia coli (Escherichia coli)
5000 ppm: MIC values (ppm) Staphylococcus aureus (Staphylococcus aureus)
